pIC50: −log10 of the molar value.
How the values were obtained:
pendrin = biological target: T1, pendrin (Homo sapiens, UniProt O43511); assay: BCECF cytoplasmic pH assay of pendrin-mediated Cl−/HCO3− exchange in pendrin-expressing FRT cells; assay type: cell-based; set-up: expressed in transfected cells
T1 sequence (O43511 1-780): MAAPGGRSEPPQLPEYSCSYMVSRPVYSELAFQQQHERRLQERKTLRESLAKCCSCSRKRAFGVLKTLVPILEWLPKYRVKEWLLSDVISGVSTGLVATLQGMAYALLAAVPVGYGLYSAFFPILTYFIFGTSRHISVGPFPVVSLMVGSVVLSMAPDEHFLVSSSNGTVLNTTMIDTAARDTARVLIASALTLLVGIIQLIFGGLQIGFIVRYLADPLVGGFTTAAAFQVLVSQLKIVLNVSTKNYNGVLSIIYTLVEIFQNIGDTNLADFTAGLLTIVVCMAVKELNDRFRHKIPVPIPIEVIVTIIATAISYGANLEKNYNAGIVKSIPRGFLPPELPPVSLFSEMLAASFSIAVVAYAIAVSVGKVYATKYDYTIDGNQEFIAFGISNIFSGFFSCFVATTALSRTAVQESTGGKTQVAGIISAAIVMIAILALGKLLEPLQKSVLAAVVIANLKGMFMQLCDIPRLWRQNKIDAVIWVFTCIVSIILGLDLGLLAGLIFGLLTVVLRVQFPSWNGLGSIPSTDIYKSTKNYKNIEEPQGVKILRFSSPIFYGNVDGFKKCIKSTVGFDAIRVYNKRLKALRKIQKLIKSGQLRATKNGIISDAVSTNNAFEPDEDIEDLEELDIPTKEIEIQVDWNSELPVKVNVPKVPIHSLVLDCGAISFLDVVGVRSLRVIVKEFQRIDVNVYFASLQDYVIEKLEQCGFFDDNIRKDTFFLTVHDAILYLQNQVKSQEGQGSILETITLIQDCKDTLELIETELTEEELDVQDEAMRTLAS
Protocol: Cytoplasmic pH (pHi) was measured to assay pendrin-mediated Cl^−/HCO3^− exchange in pendrin-expressing FRT cells and primary cell cultures using the pH-sensitive fluorescent probe BCECF. Cells were loaded for 20 min using 10 μM BCECF-AM (Invitrogen, Carlsbad, Calif.) in HCO3^−-containing buffer (in mM: 120 NaCl, 5 KCl, 1 CaCl2), 1 MgSO4, 10 glucose, 5 Hepes, 25 NaHCO3; pH 7.4) at 27° C. in a tissue culture incubator. Cells were washed and transferred to the stage of a TE2000 microscope (Nikon, Melville, N.Y.) equipped with a C9100 EM-CCD (Hamamatsu, San Jose, Calif.), XCite light source (Excelitas, Waltham, Mass.), Nikon 20×N.A. 0.75 S Fluor objective, Uniblitz shutter (Vincent Associates, Rochester, N.Y.), and filters for BCECF fluorescence (Chroma, Bellows Fall, Vt.), where they were purged with 95% O2/5% CO2. […] BCECF pH-sensitive fluorescence (490 nm excitation, 535 nm emission) was acquired at 0.5 Hz, with control experiments confirming that BCECF pH-insensitive fluorescence was not altered during exchange protocols. In some experiments pHi changes in the absence of HCO3^− were measured using buffers in which NaCl or Na gluconate replaced NaHCO3^−. To relate BCECF fluorescence to pH, a calibration curve over the quasi-linear range of BCECF sensitivity (pH 6.6-7.7) was generated as described. […]

mice (CD-1 and C57Bl/6) = assay: Acute furosemide diuresis model in mice; assay type: in vivo
Protocol: Pharmacokinetics measurements were done to guide studies of diuretic efficacy. Animal experiments were approved by UCSF Institutional Animal Care and Use Committee. Female CD1 mice (8-10 weeks) were injected with 10 mg/kg PDSinh-C01 (in saline containing 5% DMSO and 10% Kolliphor HS) ip and blood was collected by orbital puncture at 15, 30, 60, 150 and 240 min, and centrifuged at 5000 rpm for 15 min to separate plasma. Urine was collected in metabolic cages. An LC/MS method was developed to measure PDSinh-C01 concentrations in mouse blood and urine. Plasma and urine samples (60 μL) were mixed with 300-μL acetonitrile and centrifuged at 13000 rpm for 20 min, and 90 μL of the supernatant was taken for liquid chromatography/mass spectrometry (LC/MS; Waters 2695 and Micromass ZQ). […] Sodium and potassium concentrations in 3-h collected urine samples were measured by flame photometry (PFP7 Clinical Flame Photometer, Bibby Scientific Ltd, Stone. Staffs, UK). […] Blood gas was analyzed by iSTAT1 with CG4+ cartridges (Abbott Laboratories, Abbott Park, IL, USA). Urine pH was measured on freshly collected urine samples using an AB 15 pH Meter (Fisher Scientific, Pittsburgh, Pa., USA). Experiments with two groups were analyzed with Student's t-test, and experiments with 3 or more groups were analyzed using one-way analysis of variance and post-hoc Newman-Keuls multiple comparisons test. […]

Compound	inhibition of cytoplasmic alkalinization (Cl−/HCO3− exchange) (pendrin; 25 μM)	pIC50 (pendrin; Cl−/HCO3− exchange, read-out: concentration giving fifty percent inhibition of Cl−/HCO3− exchange)	increase in urine volume (mice (CD-1 and C57Bl/6); 10 mg/kg ip with furosemide 5-50 mg/kg, 3 h urine) [%]	3-h urinary K+ excretion (mice (CD-1 and C57Bl/6); with furosemide)
Cn1nc(COc2cccc(F)c2)c2c1CCN(C(=O)Nc1ccc(Cl)cc1)C2 [PDSinh-A01]	strongly inhibited	~5.60		
Cc1n[nH]c(-c2cc(S(=O)(=O)NC3CCCc4ccccc43)c(C)s2)c1C (stereo not shown) [PDSinh-C01]			~30	no significant effect

— patent US10702506B2, “Small molecule inhibitors of pendrin ion exchange and pharmaceutical compositions” (THE REGENTS OF THE UNIVERSITY OF CALIFORNIA, priority 2016, dated 2020)
